Measured values published in patent US10919943B2, “Mutant proteins enabling agrochemical control of plant gene expression” (The Regents of the University of California, priority 2016, dated 2021).

Test system: pMANDI-UAS-GFP-LEAFY
Assay: Mandipropamid induction of GFP-LEAFY in T1 leaf tissue, GFP fluorescence
Format: in vivo, Arabidopsis
Conditions: 10 μM mandipropamid, 24 hours; FIG. 15B
Description: To test the efficacy of our transcriptional circuit in planta, we constructed a 3 component system for inducing genes of interest using the mandipropamid mediated interaction of a BD-PYR1*/AD-HAB1* to drive genes of interest from a GAL4-responsive UAS (FIG. 15A). To do this we constructed a BD-PYR1*^-MANDI fusion protein and NLSSV40-VP64-HAB1*-N7 fusion protein and used these to drive gene expression from a synthetic UAS-minimal-35S promoter. To make the desired vector, the three required components were separately cloned into vectors that provided necessary elements (such as the Gal4 DNA binding domain, or 35S-promoter-nos-terminator cassettes). After this, the three components were combined into a plant binary transformation vector.
To combine all three components into a single vector, a 35S::NLS-VP64-HAB1*-N7-Nos-terminator cassette was PCR amplified from pVP64-HAB1*-N7 and cloned into pBD-PYR1* into its SacI site, upstream of the BD-PYR1* expression cassette, yielding pAD-BD. […]
Having developed a simple induction system, we tested it by examining the expression of the flowering regulator LEAFY. […] 24 hours after transfer, both tissues were examined using a GFP fluorescence dissecting scope and documented under identical camera and microscope settings (FIG. 15B).

Question: `C#CCOc1ccc(CCNC(=O)C(OCC#C)c2ccc(Cl)cc2)cc1OC` (stereo not shown) [mandipropamid] was tested. Which GFP-LEAFY induction did it give?
Answer: The GFP-LEAFY induction was “GFP-LEAFY induction in response to mandipropamid”.
